Patent publication US20130158112A1, “COMPOSITIONS AND METHODS FOR INHIBITING BETA AMYLOID SECRETION” (priority 2011, published 2013)

What was measured:
[1] = system: H4βAPP695 wt cells; experiment: Cytotoxicity by total cell protein content (BCA) of H4βAPP695 wt cells; conditions: cytotoxicity
Procedure: Cells were washed with cold phosphate buffered saline (PBS) and lysed on ice by vigorous mixing over 15 min with RIPA buffer containing 50 mM Tris-HCl (pH 8.0), 150 mM sodium chloride, 1% NP-40, 0.5% sodium deoxycholate, and 0.1% SDS, supplemented with 10% protease inhibitor cocktail and 2 mM PMSF. After centrifugation at 14000 g for 30 min to remove nuclei and other debris at 4° C., the protein content of the supernatants was measured using the BCA assay kit (Pierce).
The initial screen was performed in 96-well plates with drugs distributed by the hanging drop method yielding estimated drug levels of 10-25 μM. Total Aβ levels in the 24 h conditioned media were measured by a sandwich ELISA assay, and cytotoxicity was assessed by methylene blue staining of the cells in the wells, as previously described.

[2] = system: Aβ secretion; experiment: Secreted total Aβ ELISA in conditioned media of H4βAPP695 wt cells; assay type: cell-based, human; conditions: for inhibition at 10 µM / inhibition at 30 µM: Homo sapiens, 24 h, H4βAPP695 wt cells; for inhibition at 10 µM: read-out: Total Aβ (% decrease) 10 μM Mean; for inhibition at 30 µM: read-out: Total Aβ (% decrease) 30 μM Mean; for Aβ secretion inhibiting activity (structure activity summary): in words
Procedure: H4βAPP695 wt cells, a human […] cell line stably transfected with a wtβAPP695 expression vector construct under the control of a CMV promoter (kindly provided by Dr. Chris Eckman from Mayo Clinic, Florida) were cultured as previously described. Twenty-four hours before drug treatment, the media was replaced with serum-free media. Cells were then incubated with drugs (dissolved in DMSO) or vehicle for 24 h for collection of conditioned media and cell lysates. For the PKC inhibitors experiment, three inhibitors were treated 30 min prior to drug challenge. Primary cortical neurons were prepared from embryonic day 18 APP and presenilin 1 (APPswe, PSEN1dE9) transgenic mice on the C57BL/6 genetic background (Jackson Laboratories, strain no. 5864) as previously described. THLE-3 human hepatoma cells (from ATCC) were plated in 24-well plates that were precoated with 10 μg/mL bovine serum albumin, 10 μg/mL fibronectin, and 30 μg/mL bovine type I collagen. The cells were grown in BEGM media (Clonetics) until confluent and treated with drugs at 20 μM for 24 h. This conditioned media was harvested, diluted 1:1 in serum-free medium, and incubated with H4βAPP695 wt cells for 24 h prior to analysis of secreted Aβ, which was compared to the effect of 10 μM drug treatments without prior incubation with the THLE-3 cells. Caco-2 cells (ATCC) were plated in 12-well plates with Transwell inserts (Costar) at 70000 cells per well and grown for 21 days. The media volume of the apical and basal chambers was 0.5 and 1.5 mL, respectively. Transepithelial resistance was measured in each well and found to be >160 Ω/cm^2. Drugs at 40 μM and 20 μg/mL of lucifer yellow were added in serum-free medium to the apical chamber. Four hours later, the basal chamber media was harvested and used to measure lucifer yellow fluorescence to confirm monolayer integrity as well as for treatment of H4βAPP695 wt cells for 24 h prior to analysis of secreted Aβ, which was compared to the effect of direct addition of 10 μM of the corresponding drug.

Row | Compound | melting point [°C] | Cell protein (% decrease) 10 μM Mean [1] [%] | Cell protein (% decrease) 30 μM Mean [1] | inhibition at 10 µM [2] [%] | inhibition at 30 µM [2] [%] | Aβ secretion inhibiting activity (structure activity summary) [2]
1 | COc1ccc(CSCCNC(=O)c2c(Cl)cccc2Cl)cc1 [Compound 26, 2,6-Dichloro-N-[2-(4-methoxy-benzylsulfanyl)-ethyl]-benzamide] | 80 to 81 | 6.7 | 12.7% | 1.6 | 1.1 | loss of activity
2 | O=C(NCCSCc1ccc(O)cc1)c1c(Cl)cccc1Cl [Compound 28, 2,6-Dichloro-N-[2-(4-hydroxy-benzylsulfanyl)-ethyl]-benzamide] | 138 to 140 | 8.7 | 4.4% | 13.1 | 56.7 | loss of activity
3 | COc1cccc(OC)c1C(=O)NCCSCc1cccc(Cl)c1 [Compound 36, N-[2-(3-Chloro-benzylsulfanyl)-ethyl]-2,6-dimethoxy-benzamide] | 90 to 91 | 7.1 | −0.6% | -13.1 | 11.2 | not well tolerated
4 | N#Cc1cccc(CSCCNC(=O)c2c(Cl)cccc2Cl)c1 [Compound 38, 2,6-Dichloro-N-[2-(3-cyano-benzylsulfanyl)-ethyl]-benzamide] | 123 to 125 | −4.8 | 4.3% | 20 | 38.7 | did not yield good activity
5 | CCOC(=O)c1cccc(CSCCNC(=O)c2c(Cl)cccc2Cl)c1 [Compound 43, 3-[2-(2,6-Dichloro-benzoylamino)-ethylsulfanylmethyl]-benzoic Acid Ethyl Ester] | 43 to 45 | 5.8 | 5.4% | 3 | 10.1 | did not yield good activity
6 | O=C(NCCSCc1cccc(F)c1)c1c(Cl)cccc1Cl [Compound 47, 2,6-Dichloro-N-[2-(3-fluoro-benzylsulfanyl)-ethyl]-benzamide] | 70 to 72 | 2.6 | 3.7% | 10.2 | 36.1 | did not yield good activity
7 | O=Cc1cccc(CSCCNC(=O)c2c(Cl)cccc2Cl)c1 [Compound 49, 2,6-Dichloro-N-[2-(3-formyl-benzylsulfanyl)-ethyl]-benzamide] | 63 to 65 | 1.5 | −2.1% | 19.9 | 36.4 | did not yield good activity
8 | O=C(NCCSCc1cccc(OCCOCCO)c1)c1c(Cl)cccc1Cl [Compound 70, 2,6-Dichloro-N-(2-(3-[2-(2-hydroxy-ethoxy)-ethoxy]-benzylsulfanyl)-ethyl)-benzamide] |  | −7.3 | 6.1% | 17.4 | 24.3 | did not yield good activity
9 | Cc1cccc(C)c1C(=O)NCCSCc1cccc(Cl)c1 [Compound 75, N-[2-(3-chloro-benzylsulfanyl)-ethyl]-2,6-dimethyl-benzamide] |  | 0.9 | −9.4% | 29.5 | 51.6 | not well tolerated
10 | O=C(Cc1c(Cl)cccc1Cl)NCCSCc1cccc(Cl)c1 [Compound 78, N-[2-(3-chloro-benzylsulfanyl)-ethyl]-2-(2,6-dichloro-phenyl)-acetamide] |  | −1.3 | −.07% | 6.7 | 13.5 | No tested substitutions in the linker region were well tolerated

Now from value to compound, other results behind:

Row | melting point [°C] | Compound | Cell protein (% decrease) 10 μM Mean [1] [%] | Cell protein (% decrease) 30 μM Mean [1] | inhibition at 10 µM [2] [%] | inhibition at 30 µM [2] [%] | Aβ secretion inhibiting activity (structure activity summary) [2]
11 | 139 to 141 | O=C(NCCS(=O)(=O)Cc1cccc(O)c1)c1c(Cl)cccc1Cl [Compound 31, 2,6-Dichloro-N-[2-(3-hydroxy-phenylmethanesulfonyl)-ethyl]-benzamide] | 7.7 | 4.4% | -10.1 | 9.6 | No tested substitutions in the linker region were well tolerated
12 | 165 to 166 | O=C(NCC[S+]([O-])Cc1cccc(O)c1)c1c(Cl)cccc1Cl (stereo not shown) [Compound 33, 2,6-Dichloro-N-[2-(3-hydroxy-phenylmethanesulfinyl)-ethyl]-benzamide] | 2.8 | 4.4% | -23.7 | 15.9 | No tested substitutions in the linker region were well tolerated
13 | 41 to 43 | COc1cccc(CSCCNC(=O)c2c(OC)cccc2OC)c1 [Compound 34, 2,6-Dimethoxy-N-[2-(3-methoxy-benzylsulfanyl)-ethyl]-benzamide] | 0.5 | 3.9% | 6.2 | -0.6 | not well tolerated
14 | 61 to 62 | O=C(NCCSCc1cccc(O)c1)c1c(O)cccc1O [Compound 35, 2,6-Dihydroxy-N-[2-(3-hydroxy-benzylsulfanyl)-ethyl]-benzamide] | 10.5 | 14.3% | -22.5 | -25.2 | not well tolerated
15 | 76 to 78 | O=C(NCCSCc1cccc([N+](=O)[O-])c1)c1c(Cl)cccc1Cl [Compound 40, 2,6-Dichloro-N-[2-(3-nitro-benzylsulfanyl)-ethyl]-benzamide] | 7.5 | 24.6% | > 50 | 72.5 | good activity
16 | 55 to 56 | Nc1cccc(CSCCNC(=O)c2c(Cl)cccc2Cl)c1 [Compound 41, N-[2-(3-Amino-benzylsulfanyl)-ethyl]-2,6-dichloro-benzamide] | 15.3 | 13.1% | 0.1 | 17 | did not yield good activity
17 | 58 to 59 | COc1cccc(CSCCNC(=O)c2c(Cl)cccc2OC)c1 [Compound 42, 2-Chloro-6-methoxy-N-[2-(3-methoxy-benzylsulfanyl)-ethyl]-benzamide] | 1.9 | 9.3% | -2.9 | -4.7 | 
18 | 165 to 166 | O=C(O)c1cccc(CSCCNC(=O)c2c(Cl)cccc2Cl)c1 [Compound 44, 3-[2-(2,6-Dichloro-benzoylamino)-ethylsulfanylmethyl]-benzoic Acid] | 7.1 | 3.2% | -11.4 | -3.8 | did not yield good activity
19 | 148 to 150 | NC(=O)c1cccc(CSCCNC(=O)c2c(Cl)cccc2Cl)c1 [Compound 45, N-[2-(3-Carbamoyl-benzylsulfanyl)-ethyl]-2,6-dichloro-benzamide] | −2.8 | −8.6% | 6.2 | 32.3 | did not yield good activity
20 | 39 to 41 | O=C(NCCSCc1cccc(F)c1)c1c(F)cccc1F [Compound 46, 2,6-Difluoro-N-[2-(3-fluoro-benzylsulfanyl)-ethyl]-benzamide] | 0.1 | 1.8% | -16.8 | -15.5 | 
